Results published in patent US10647677B2, “Analogues of hydroxychloroquine (HCQ) without retinal toxicity” (Inoviem Scientific, priority 2015, dated 2020).
Where two headings read alike, the source gives them in different places.

Assays:
[1] = test system: C57Bl/6 mice, pulmonary vasculitis induced by immune complexes; assay: Pulmonary vasculitis induced by immune complexes: neutrophils in bronchoalveolar lavages (flow cytometry); type: in vivo; settings: HCQ 10 mg/kg, CB137 10, 30 and 100 mg/kg, 4 hours after instillation, compared to control + (FIG. 5)
Experimental: Female C57Bl/6 strain mice from the Jackson Laboratory, 8-10 weeks old and weighing about 20 g, are used in all experiments. The mice are maintained at a temperature of 23° C.±1° C. with 12-hour light/dark cycle. Mice have access to water and food ad libitum and are housed at least one week before the beginning of any experiments.
A retro-orbital blood sampling was performed using capillaries containing heparin on mice anesthetized with isoflurane the day before the manipulation. The next day, the mice were anesthetized with a mixture of ketamine and xylasin (90 mg/kg and 125 mg/kg, respectively). The immune IgG complex is induced in the lungs by intratracheal instillation of 0.5 mg of anti-BSA rabbit antibody (MP Biomedicals, Strasbourg, France) and by the administration of 0.5 mg per mouse of BSA antigen in the caudal vein (Warner et al., 2001 and Warren et al., 1989). The specified treatment (PF-1355, CB137 or solvent alone) is administered enterally. The animals are euthanized 4 hours after intratracheal instillation.
The animals are euthanized 4 hours after the intratracheal instillation by a lethal injection of pentobarbital. A submandibular blood sample is taken. […] The total number of cells, excluding any residual red cells and dead cells stained with trypan blue, is determined under the light microscope on a Malassez cell. […]

[2] = test system: MRL/Ipr mice (lupus model); assay: Development of the disease: dermatitis in MRL/Ipr mice; type: in vivo; settings: 10 mg/kg, compared to carrier and HCQ 10 mg/kg (FIG. 2)
Experimental: (§1) The MRL/MPJ-Fas (Ipr) (MRL-Ipr) and C57Bl/6 mice for the behavioral experiments are from the Jackson Laboratory and are randomly distributed into 5 groups. All animals were kept at controlled temperature (23° C.+/−1° C.) with a 12-hour day/night cycle, water and ad libitum food.
(§2) Mice received the specified dose of hydroxychloroquine (Tokyo Chemical Industry), CB137 or carrier intraperitoneally (IP), every 24 hours and for 5 days over a 10-week period. With regard to the MRL/Ipr mice, treatment started at 7 weeks of age, and ended at 23 weeks of age where a significant proportion of untreated mice died. With regard to the C57B1/6 mice, the same treatment program was carried out and the mice were sacrificed after […]. HCQ and CB137 were each freshly prepared in physiological saline and injected into the mice in a final volume of 50 μL. The MRL/Ipr mice were examined daily for skin lesions. For histological analysis, the animals were sacrificed and the tissues were rapidly dissected and immediately post-fixed.
Dermatitis was less common in mice treated with CB137 10 mg/kg compared to control (carrier) mice and HCQ treated mice (10 mg/kg (FIG. 2).

αB-crystalline (αB-C) = target: T1, αB-crystalline (αB-C) (Homo sapiens, UniProt P02511); assay: Surface plasmon resonance (Biacore 3000) affinity on αB-crystalline; type: binding; settings: SPR at 25° C., read-out: Kd (M) on crystallin
T1 construct: purchased
T1 sequence (P02511 1-175): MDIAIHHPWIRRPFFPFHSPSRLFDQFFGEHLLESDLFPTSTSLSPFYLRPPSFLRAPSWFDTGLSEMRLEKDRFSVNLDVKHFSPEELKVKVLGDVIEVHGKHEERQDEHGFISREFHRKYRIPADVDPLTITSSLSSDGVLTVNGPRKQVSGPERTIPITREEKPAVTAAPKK
Experimental: Using the surface plasmon resonance technology (Biacore 3000), the interaction constants between HCQ analogues (HCQa) and myeloperoxidase (MPO) targets and αB-crystalline (αB-C) were measured at 25° C. according to 12 different series of experiments. First, HCQ analogues at five different concentrations (10^−6 to 10^−8 M) were injected at a rate of 10^−6 L/min for 250 s on the MPO and αB-C targets as well as on the ERK1 and ERK2 controls, followed by a dissociation phase of 150 s.
The kinetic parameters were measured using the BIAevaluation 4.1 software. The set of resonance unit values obtained with the controls were subtracted from those obtained with MPO and αB-C to compensate for non-specific bonds.
The differences in Kd values for the myeloperoxidase (MPO) and αB-crystalline (αB-C) enzymes in Tables 1 and 2 are due to the variability of commercial batches. Nevertheless, the difference between the Kd of the compounds HCQ and CB137 remains identical according to these two tests.
Analysis of the compounds in the form of sulphate salts according to the method described above: […]

[3] = test system: MRL/Ipr mice (lupus model); assay: Survival of MRL/Ipr mice (lupus model); type: in vivo; settings: 10 mg/kg IP, compared with HCQ at the same dose (FIG. 1)
Experimental: as §1, §2

[4] = Table 2, compounds in the form of sulphate salts

Row | SMILES | amount of neutrophils in bronchoalveolar lavages / lungs [1] | dermatitis (rate of mice having dermatitis) [2] | Kd (αB-crystalline (αB-C); Table 1) [M] | Kd (αB-crystalline (αB-C); [4]) [M] | survival rate [3]
1 | CCN(CCO)CCCC(C)Nc1c(Cl)cnc2cc(Cl)ccc12 (centres unmarked) [CB137] | decreases the amount of neutrophils | less common | 1.75e-07 | 3e-05 | significantly higher survival rate
2 | CCN(CCO)CCCC(C)Nc1ccnc2cc(Cl)ccc12 (centres unmarked) [Commercial HCQ, hydroxychloroquine] | slightly increase the amount of neutrophils | – | 2.2e-08 | 1e-06 | –
